# Values of other authors in patent US20250288604A1, “SUGAR-CONJUGATED LIPID NANOPARTICLES FOR TARGETED DELIVERY OF SIRNA TO HEPATOCYTES” (University of Virginia Patent Foundation, priority 2022, published 2025).
# Settings: single ionizable lipid
row,pKa,Compound
1,6.75,CCCCCCCCCCCOC(=O)CCCCCN(CCO)CCCCCCCC(=O)OC(CCCCCCCC)CCCCCCCC [SM-102]
2,6.09,CCCCCCCCC(CCCCCC)C(=O)OCCCCCCN(CCCCO)CCCCCCOC(=O)C(CCCCCC)CCCCCCCC (stereo not drawn) [ALC-0315]
3,6.44,"CCCCC/C=C\C/C=C\CCCCCCCCC(CCCCCCCC/C=C\C/C=C\CCCCC)OC(=O)CCCN(C)C [DLinMc3DMA, (6Z,9Z,28Z,31Z)-Heptatriaconta-6,9,28,31-tetraen-19-yl 4-(dimethylamino) butanoate]"
